The source of these data is the supplement of paper PMC10307832.

Holding throughout (test): relative viability (nuclei count vs DMSO), 5 days (fraction); higher = more cells survive
Compound in assay [1]: O=c1[nH]cc(F)c(=O)[nH]1 [5-Fluorouracil] + Cc1nc(NC(=O)N2CCC[C@H]2C(N)=O)sc1-c1ccnc(C(C)(C)C(F)(F)F)c1 [Alpelisib] (partner 2 µM)
The method, boiled down:
(§1)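 Relative viability was taken as the ratio of nuclei in treated wells to nuclei in vehicle wells. Lung cancer cell lines in 1536-well plates received compounds by pin tool one day after seeding, either one drug alone or a fixed anchor-drug dose plus five library-drug doses (not always all listed) in √10 steps. Nuclei were counted on 4× images after 5 days of treatment, and values are medians of duplicate plates.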

Compound in assay [2]: CN[C@@H]1C[C@H]2O[C@@](C)([C@@H]1OC)n1c3ccccc3c3c4c(c5c6ccccc6n2c5c31)C(=O)NC4 [Staurosporine] + COc1cc2c(Oc3ccc(NC(=O)C4(C(=O)Nc5ccc(F)cc5)CC4)cc3F)ccnc2cc1OCCCN1CCOCC1 [Foretinib] (partner 0.25 µM)
The method, boiled down:
as §1

Compound in assay [3]: CN[C@@H]1C[C@H]2O[C@@](C)([C@@H]1OC)n1c3ccccc3c3c4c(c5c6ccccc6n2c5c31)C(=O)NC4 [Staurosporine] + CS(=O)(=O)N1CCN(Cc2cc3nc(-c4cccc5[nH]ncc45)nc(N4CCOCC4)c3s2)CC1 [Pictilisib] (partner 1 µM)
Summed up:
as §1

Compound in assay [4]: CC1=C(CC(=O)O)c2cc(F)ccc2/C1=C\c1ccc([S+](C)[O-])cc1 [Sulindac] + Nc1nc2[nH]cc(CCc3ccc(C(=O)N[C@@H](CCC(=O)O)C(=O)O)cc3)c2c(=O)[nH]1 [Pemetrexed] (partner 0.2 µM)
The method, boiled down: as §1

In the case of PC-3 [JPC-3], the relative viability stood at 0.913 in assay [1] (first compound 0.02 µM); 1.04 in assay [1] (first compound 0.2 µM); 0.838 in assay [1] (first compound 0.6325 µM); 0.708 in assay [1] (first compound 2 µM); 1.07 in assay [2] (first compound 0.005 µM); 0.483 in assay [2] (first compound 0.01581 µM). Further, the relative viability in assay [2] (first compound 0.05 µM) was determined as 0.525; in assay [2] (first compound 0.1581 µM) it was 0.359; in assay [2] (first compound 0.5 µM), 0.4; in assay [3] (first compound 0.005 µM), 0.655; in assay [3] (first compound 0.05 µM), 0.446; in assay [3] (first compound 0.1581 µM), 0.271. The relative viability in assay [3] (first compound 0.5 µM) is 0.242; in assay [4] (first compound 0.08 µM), 1.07; in assay [4] (first compound 0.253 µM), 1.04; in assay [4] (first compound 0.8 µM), 0.738; in assay [4] (first compound 2.53 µM) it was 1.07; in assay [4] (first compound 8 µM), 1.19.
PC-14: the relative viability stood at 1.02 in assay [1] (first compound 0.02 µM); 0.962 in assay [1] (first compound 0.2 µM); 0.748 in assay [1] (first compound 0.6325 µM); 0.424 in assay [1] (first compound 2 µM); 0.929 in assay [2] (first compound 0.005 µM); 0.718 in assay [2] (first compound 0.01581 µM). Moreover, the relative viability in assay [2] (first compound 0.05 µM) was 0.38; in assay [2] (first compound 0.1581 µM), 0.102; in assay [2] (first compound 0.5 µM), 0.0787; in assay [3] (first compound 0.005 µM), 0.237; in assay [3] (first compound 0.01581 µM) it was 0.12; in assay [3] (first compound 0.05 µM), 0.0413. The relative viability came to 0.0584 in assay [3] (first compound 0.1581 µM); 0.0397 in assay [3] (first compound 0.5 µM); 0.122 in assay [4] (first compound 0.08 µM); 0.118 in assay [4] (first compound 0.253 µM); 0.162 in assay [4] (first compound 0.8 µM); 0.13 in assay [4] (first compound 2.53 µM). Moreover, the relative viability in assay [4] (first compound 8 µM) stood at 0.147.
As to RERF-LC-KJ, the relative viability in assay [1] (first compound 0.02 µM) was 0.764; in assay [1] (first compound 0.2 µM) it was 0.836; in assay [1] (first compound 0.6325 µM), 0.852; in assay [1] (first compound 2 µM) it was 0.62; in assay [2] (first compound 0.005 µM), 0.876; in assay [2] (first compound 0.01581 µM) it was 0.824. For the same cell line, the relative viability stood at 0.702 in assay [2] (first compound 0.05 µM); 0.491 in assay [2] (first compound 0.1581 µM); 0.191 in assay [2] (first compound 0.5 µM); 0.565 in assay [3] (first compound 0.005 µM); 0.308 in assay [3] (first compound 0.01581 µM); 0.284 in assay [3] (first compound 0.05 µM). Also, the relative viability in assay [3] (first compound 0.1581 µM) was determined as 0.151; in assay [3] (first compound 0.5 µM), 0.141; in assay [4] (first compound 0.08 µM), 0.458; in assay [4] (first compound 0.253 µM), 0.486; in assay [4] (first compound 0.8 µM) it was 0.506; in assay [4] (first compound 2.53 µM), 0.447. Further, in assay [4] (first compound 8 µM), the relative viability is 0.519.
As to SK-LU-1, the relative viability was determined as 0.934 in assay [1] (first compound 0.02 µM); 1.12 in assay [1] (first compound 0.2 µM); 0.868 in assay [1] (first compound 0.6325 µM); 0.704 in assay [1] (first compound 2 µM); 0.267 in assay [2] (first compound 0.005 µM); 0.192 in assay [2] (first compound 0.01581 µM). For the same cell line, the relative viability was 0.119 in assay [2] (first compound 0.1581 µM); 0.132 in assay [2] (first compound 0.5 µM); 0.412 in assay [3] (first compound 0.005 µM); 0.187 in assay [3] (first compound 0.01581 µM); 0.145 in assay [3] (first compound 0.05 µM); 0.137 in assay [3] (first compound 0.1581 µM). In addition, the relative viability was found to be 0.124 in assay [3] (first compound 0.5 µM); 1.13 in assay [4] (first compound 0.08 µM); 1.05 in assay [4] (first compound 0.253 µM); 0.821 in assay [4] (first compound 0.8 µM); 1.02 in assay [4] (first compound 2.53 µM); 1.02 in assay [4] (first compound 8 µM).
Turning to SK-MES-1, the relative viability is 0.798 in assay [1] (first compound 0.02 µM); 0.789 in assay [1] (first compound 0.2 µM); 0.447 in assay [1] (first compound 0.6325 µM); 0.341 in assay [1] (first compound 2 µM); 0.626 in assay [2] (first compound 0.005 µM); 0.581 in assay [2] (first compound 0.01581 µM). The relative viability came to 0.293 in assay [2] (first compound 0.05 µM); 0.333 in assay [2] (first compound 0.1581 µM); 0.142 in assay [2] (first compound 0.5 µM); 0.328 in assay [3] (first compound 0.005 µM); 0.265 in assay [3] (first compound 0.01581 µM); 0.173 in assay [3] (first compound 0.05 µM). Moreover, the relative viability in assay [3] (first compound 0.1581 µM) came to 0.182; in assay [3] (first compound 0.5 µM), 0.19; in assay [4] (first compound 0.08 µM), 1.12; in assay [4] (first compound 0.253 µM), 0.99; in assay [4] (first compound 0.8 µM), 1.03; in assay [4] (first compound 2.53 µM), 1.03. The relative viability in assay [4] (first compound 8 µM) was 1.06.
With SW 1573, the relative viability was 0.705 in assay [1] (first compound 0.02 µM); 0.877 in assay [1] (first compound 0.2 µM); 0.867 in assay [1] (first compound 0.6325 µM); 0.507 in assay [1] (first compound 2 µM); 0.852 in assay [2] (first compound 0.005 µM); 0.943 in assay [2] (first compound 0.01581 µM). The relative viability in assay [2] (first compound 0.05 µM) worked out at 0.203; in assay [2] (first compound 0.1581 µM), 0.176; in assay [2] (first compound 0.5 µM) it was 0.104; in assay [3] (first compound 0.005 µM), 0.275; in assay [3] (first compound 0.01581 µM) it was 0.18; in assay [3] (first compound 0.05 µM), 0.123. Further, the relative viability in assay [3] (first compound 0.1581 µM) was found to be 0.0832; in assay [3] (first compound 0.5 µM), 0.0842; in assay [4] (first compound 0.08 µM), 0.91; in assay [4] (first compound 0.253 µM), 0.887; in assay [4] (first compound 0.8 µM), 0.737; in assay [4] (first compound 2.53 µM) it was 0.754. Besides, the relative viability in assay [4] (first compound 8 µM) worked out at 0.9.
